# Legend:
# [1] = biological target: T1, GPR45 like/GPR63 receptor (Homo sapiens, UniProt Q9BZJ6); test: Cell growth assay in transfected CHO cells; assay type: cell-based; set-up: The PCR fragment with a length of 1,260 base pairs which was formed by the PCR described above was incorporated; expressed in transfected cells; host or cells: CHO cells, transient transfection with Lipofectamine; conditions: 1 μM S1P, 48 hours, Iscove's medium with 10% dialyzed fetal calf serum, average of 2 independent tests
# Procedure: CHO cells were put in an amount of 8×10^4 cells into 35 mm plates. After 32 hours, the cells were transfected with 1 μg of the plasmid construct using Lipofectamine (Gibco). After a further 13 hours (time 0), the cells were washed with PBS and incubated in Iscove's medium which contained 10% dialyzed fetal calf serum for 48 hours (time 48), specifically in the presence or absence of 1 μM S1P (sphingosine 1-phosphate).
# The number of cells at time 0 and time 48 was determined by counting. This was done by first treating the cells with trypsin and then suspending them in 1 ml of Iscove's. An amount of 100 μl of these cells was diluted in 10 ml of buffer and counted in a cell counter, e.g. in the Casy Cellcounter TT (Cell Counter und Analysesystem, Schärfe, Reutlingen).
# An amount of 8×10^4 CHO cells was seeded onto 35 mm plates. The cells were transfected after 32 hours with 1 μg of DNA of the vector construction. After 13 hours, the cells were washed once with PBS and incubated in Iscove's medium containing 10% dialyzed fetal calf serum in the presence or absence of 1 μM S1P for a further 48 hours.
# [2] = biological target: T1, GPR45 like/GPR63 receptor; test: FLIPR assay, stimulation of intracellular Ca2+ release in transfected CHO cells; assay type: cell-based; set-up: The PCR fragment with a length of 1,260 base pairs which was formed by the PCR described above was incorporated; expressed in transfected cells; host or cells: CHO-K1 cells, transient transfection with Lipofectamine; conditions: final concentration of 1 μM; CHO cells expressing GPR45 like/GPR63 receptor and G protein α subunit delta 6qi4mgr
# Procedure: CHO-K1 cells were cultivated in basal Iscove's medium with further additions. Iscove's medium is commercially available from, for example, Biochrom, Berlin. The composition was described for the first time in N. N. Iscove and F. Melchers, Journal of Experimental Medicine 147, 923-933 (1978). 10% fetal bovine serum, 10 000 U/ml-10 000 μg/ml penicillin-streptomycin, gentamycin, and 2 mM L-glutamine were used as further additions to Iscove's medium. The cells were incubated at 37° C. with a 5% CO2 atmosphere.
# About 2×10^5 CHO-K1 cells were seeded in 35 mm dishes for the transient transfection. After further incubation for about 24 hours and with the cells at about 50-80% confluence, the cells were transiently transfected with 1 μg of the plasmid DNA construct with the assistance of Lipofectamine (Gibco).
# About 16 to 18 hours after the transfection, the CHO cells were put in an amount of about 80,000 cells per well in 96-well plates and incubated further for about 18-24 hours. […]
# After the last washing step, 100 μl were left on the cells in each well. […] A 60 μM solution was kept ready on a 96-well microtiter plate. […]
# The fluorescence was measured by a Fluorometric Imaging Plate Reader (FLIPR®, Molecular Devices, Sunnyvale, Calif.) for 1 min in intervals lasting 1 sec and for a further 2 min in 3-second intervals. […]
# T1 sequence (Q9BZJ6 whole entry, the tested form may be a part): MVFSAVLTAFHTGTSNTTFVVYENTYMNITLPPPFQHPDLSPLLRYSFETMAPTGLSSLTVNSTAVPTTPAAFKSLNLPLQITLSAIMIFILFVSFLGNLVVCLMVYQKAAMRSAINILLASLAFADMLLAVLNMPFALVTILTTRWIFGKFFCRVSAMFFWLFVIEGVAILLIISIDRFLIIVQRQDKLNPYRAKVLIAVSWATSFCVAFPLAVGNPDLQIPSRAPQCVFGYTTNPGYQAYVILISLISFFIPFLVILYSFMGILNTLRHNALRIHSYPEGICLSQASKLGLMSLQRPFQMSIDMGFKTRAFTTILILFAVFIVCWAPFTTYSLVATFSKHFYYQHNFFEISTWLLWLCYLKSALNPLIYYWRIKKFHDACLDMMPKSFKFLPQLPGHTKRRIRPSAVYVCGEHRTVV
more cells (cell number vs absence of S1P) [1],SMILES,Ca^2+ influx [2]
about 20%,"CCCCCCCCCCCCC/C=C/[C@@H](O)[C@@H](N)COP(=O)(O)O [S1P, sphingosine 1-phosphate]",led to a measurable Ca^2+ influx
–,"CCCCCCCCCCCCCCC[C@@H](O)[C@@H](N)COP(=O)(O)O [DHS1P, dihydrosphingosine 1-phosphate]",led to a measurable Ca^2+ influx
